According to patent US6890951B2, “Treatment of addiction and addiction-related behavior” (Brookhaven Science Associates LLC, priority 1998, dated 2005):
“Also recorded” adds a separate entry of the source. Where two headings read alike, the source gives them in different places.

What was measured:
[1] = test system: rhesus monkeys; conditions: cited from earlier work
[2] = test system: NAc DA; assay: Microdialysis: cocaine/heroin (speedball) induced increases in NAc DA; assay type: in vivo, rats
Description: In vivo microdialysis studies were performed using adult male Sprague-Dawley rats (Taconic Farms) as detailed previously (Morgan and Dewey, 1998). Cocaine, a dopamine reuptake inhibitor, (n=6-8) was administered (i.p.) at a dose of 20 mg/kg while heroin, an indirect dopamine releaser, (n=6-8) was administered (i.p.) at a dose of 0.5 mg/kg. In studies designed to investigate the synergistic effects of a cocaine/heroin combination (n=6-8), both drugs were administered at the identical dose used in the single drug studies. Alone cocaine produced a marked elevation in extracellular DA of approximately 380% above baseline values, 60 minutes following administration. DA returned to baseline within 120 minutes. In contrast, heroin increased NAc DA by only 70%, 60 minutes following administration, returning to baseline within 140 minutes. However, when combined, the two drugs produced an increase in NAc DA of approximately 1000%, 180 minutes following administration that had not returned to baseline values by 200 minutes after reaching peak values (FIG. 9).

[3] = test system: male Sprague-Dawley rats; assay type: in vivo
Excerpt: In all rodent studies, male Sprague-Dawley rats were used (200-225 g, Taconic farms, Germantown, N.Y.). Animals were allowed to acclimate to the animal housing facility for at least 5 days prior to beginning the experiments. […] The conditioning procedure for the acquisition phase consisted of 12 sessions carried out consecutively over 12 days.
The animals in each group were randomly assigned to a 2×2 factorial design with one factor being the pairing chamber and the other factor being the order of conditioning. The animals that received either saline or cocaine were injected and confined to the appropriate compartment for 30 minutes.
[…] The amount of time spent in each chamber was recorded using an automated infrared beam electronically coupled to a timer.
In this example the procedure outlined in Section 2 of Materials and Methods was followed.

[4] = in vivo; cited from earlier work
[5] = test system: rats; assay: Nicotine-induced conditioned place preference; assay type: in vivo
Excerpt: A total of 8 rats were examined for each treatment pairing. Animals received 4 pairings over an 8 day period, one pairing per day. […] The protocol on days 1 and 2 was repeated 3 additional times.
The CPP apparatus was made entirely of plexiglass, except for the floor in one of the pairing chambers, which was made of a stainless steel plate with holes (0.5 mm in diameter) spaced 0.5 mm from edge to edge. The two pairing chambers differed in visual and tactile cues. One chamber was entirely light blue with the stainless steel floor and the second chamber was light blue with horizontal black stripes (2.5 cm wide) spaced 3.8 cm apart with a smooth plexiglass floor.
The conditioning procedure consisted of 20 sessions carried out consecutively over 20 days. The first three sessions were habituation sessions, during which the animals were handled for 5 minutes per day and exposed to the sights and sounds of the test room. […] The amount of time spent in each chamber was recorded using an automated infrared beam electronically coupled to a timer.
The animals were habituated as described above. […] Subsequently, the animals were then placed into the appropriate chamber for 30 minutes. This was repeated for 8 pairings over a 16 day period. On the test day, animals were placed in the CPP apparatus and allowed free access to the all of the CPP chambers and the amount of time spent in chamber was recorded.

[6] = test system: male Sprague-Dawley rats; assay: Food-induced conditioned place preference; assay type: in vivo
Excerpt: In order to test food-induced CPP in rodents, four groups of rats were allowed access to food ad libitum during the entire 12 session of CPP procedure. The 12 session CPP procedure was exactly the same as the procedure used in the cocaine induced CPP studies except the appetitive substance was food rather than cocaine. […] The animals in all four groups were habituated to Froot Loops, a fruit-flavored breakfast cereal that is very appealing to laboratory rats, in the appropriate chamber in the test room during four habituating sessions. […] The amount of time spent in the paired and unpaired chambers was recorded using an automated device.
In this example the procedure outlined in Section 3 of Materials and Methods was followed.

[7] = test system: male F344 rats; conditions: cited from earlier work
[8] = acquisition, 75 mg/kg GVG 2.5 hours prior to cocaine 20 mg/kg
[9] = acquisition, 75 mg/kg GVG/Saline pairing
[10] = acquisition, 112 mg/kg GVG 2.5 hours prior to cocaine 20 mg/kg
[11] = acquisition, 112 mg/kg GVG/Saline pairing
[12] = acquisition, 150 mg/kg GVG 2.5 hours prior to cocaine 20 mg/kg
[13] = acquisition, 150 mg/kg GVG/Saline pairing
[14] = acquisition, 300 mg/kg GVG 2.5 hours prior to cocaine 20 mg/kg
[15] = acquisition, 300 mg/kg GVG/Saline pairing
[16] = expression, Saline/Cocaine pairings, GVG 75 mg/kg on test day
[17] = expression, Saline/Cocaine pairings, GVG 112 mg/kg on test day
[18] = expression, Saline/Cocaine pairings, GVG 150 mg/kg on test day
[19] = expression, Saline/Cocaine pairings, GVG 300 mg/kg on test day
[20] = expression, Saline/Saline pairings, GVG 112 mg/kg on test day
[21] = expression, Saline/Saline pairings, GVG 150 mg/kg on test day
[22] = expression, Saline/Saline pairings, GVG 300 mg/kg on test day
[23] = acquisition, GVG 37.5 mg/kg i.p. 2.5 hours before nicotine 0.4 mg/kg s.c., 8 pairings
[24] = acquisition, GVG 75 mg/kg i.p. 2.5 hours before nicotine 0.4 mg/kg s.c., 8 pairings
[25] = acquisition, GVG 75 mg/kg i.p. 2.5 hours prior to nicotine 0.4 mg/kg s.c. (Table XII)
[26] = expression, Saline/Nicotine pairings, GVG 37.5 mg/kg on test day
[27] = expression, Saline/Nicotine pairings, GVG 75 mg/kg on test day
[28] = expression, Saline/Nicotine pairings, GVG 150 mg/kg on test day

SMILES: C=CC(N)CCC(=O)O (racemic) [GVG, 4-amino-5-hexanoic acid]
- withdrawal signs or symptoms ([1]; animals withdrawn from chronic GVG treatment): do not exhibit withdrawal signs or symptoms
- self-administration of GVG ([1]; rhesus monkeys): not self-administered
- temporal aspects of the response to cocaine/heroin ([2]; GVG 300 mg/kg i.p.): did not effect the temporal aspects of the response
- increase in NAc DA after cocaine/heroin challenge ([2]; GVG 300 mg/kg i.p. 2.5 hours prior to challenge, 180 minutes following challenge): approximately 500%
- synergistic effects of the combined drug challenge (absolute magnitude) ([2]; GVG 300 mg/kg i.p. 2.5 hours prior to cocaine/heroin): completely abolished the synergistic effects
- acquisition and expression of cocaine-induced CPP ([3]; GVG 75 mg/kg, cocaine 20 mg/kg): not
- Time spent in chambers, Paired [3, 8]: 9.1 ± 1.1 min
- Time spent in chambers, Unpaired [3, 8]: 5.9 ± 1.2 min
- Time spent in chambers, Paired [3, 9]: 7.3 ± 0.5 min
- Time spent in chambers, Unpaired [3, 9]: 7.7 ± 0.6 min
- Time spent in chambers, Paired [3, 10]: 8.2 ± 0.5 min
- Time spent in chambers, Unpaired [3, 10]: 6.8 ± 0.5 min
- Time spent in chambers, Paired [3, 11]: 7.6 ± 0.6 min
- Time spent in chambers, Unpaired [3, 11]: 7.4 ± 0.6 min
- Time spent in chambers, Paired [3, 12]: 7.9 ± 0.8 min
- Time spent in chambers, Unpaired [3, 12]: 7.1 ± 0.8 min
- Time spent in chambers, Paired [3, 13]: 7.8 ± 0.6 min
- Time spent in chambers, Unpaired [3, 13]: 7.2 ± 0.6 min
- Time spent in chambers, Paired [3, 14]: 7.6 ± 0.7 min
- Time spent in chambers, Unpaired [3, 14]: 7.2 ± 0.7 min
- Time spent in chambers, Paired [3, 15]: 7.2 ± 0.4 min
- Time spent in chambers, Unpaired [3, 15]: 7.8 ± 0.4 min
- Time spent in chambers, Paired [3, 16]: 10.6 ± 0.6^3 min
- Time spent in chambers, Unpaired [3, 16]: 4.4 ± 0.9 min
- Time spent in chambers, Paired [3, 17]: 8.1 ± 0.7 min
- Time spent in chambers, Unpaired [3, 17]: 6.9 ± 0.6 min
- Time spent in chambers, Paired [3, 18]: 7.9 ± 0.3 min
- Time spent in chambers, Unpaired [3, 18]: 7.1 ± 0.3 min
- Time spent in chambers, Paired [3, 19]: 7.9 ± 0.5 min
- Time spent in chambers, Unpaired [3, 19]: 7.1 ± 0.6 min
- Time spent in chambers, Paired [3, 20]: 7.2 ± 0.3 min
- Time spent in chambers, Unpaired [3, 20]: 7.8 ± 0.3 min
- Time spent in chambers, Paired [3, 21]: 7.7 ± 0.2 min
- Time spent in chambers, Unpaired [3, 21]: 7.3 ± 1.1 min
- Time spent in chambers, Paired [3, 22]: 7.3 ± 0.4 min
- Time spent in chambers, Unpaired [3, 22]: 7.7 ± 0.3 min
- excretion [4]: excreted primarily unchanged in the urine; also recorded: excreted primarily in the unchanged form by the kidneys
- interaction with the hepatic microsomal enzymes [4]: does not interact with the hepatic microsomal enzymes
- acquisition of nicotine-induced CPP ([5]; GVG 37.5 mg/kg): did not significantly block and not
- acquisition phase of nicotine-induced CPP ([5]; GVG 75 mg/kg): significantly blocked; also recorded: abolish
- Time spent in chambers, Paired [5, 23]: 8.8 ± 0.5 min
- Time spent in chambers, Unpaired [5, 23]: 6.2 ± 0.5 min
- Time spent in chambers, Paired [5, 24]: 6.9 ± 0.9 min
- Time spent in chambers, Unpaired [5, 24]: 8.1 ± 0.9 min
- Time spent in chambers, Paired [5, 25]: 6.4 ± 0.3^4 min
- Time spent in chambers, Unpaired [5, 25]: 8.6 ± 0.3^5 min
- Time spent in chambers, Paired [5, 26]: 6.8 ± 1.0 min
- Time spent in chambers, Unpaired [5, 26]: 8.2 ± 1.0 min
- Time spent in chambers, Paired [5, 27]: 6.4 ± 0.3 min
- Time spent in chambers, Unpaired [5, 27]: 8.6 ± 0.3 min
- Time spent in chambers, Paired [5, 28]: 5.0 ± 0.9 min
- Time spent in chambers, Unpaired [5, 28]: 10.0 ± 0.9 min
- Time spent in chambers, Paired ([6]; GVG 150 mg/kg ip / Food): 9.4 ± 0.4 min
- Time spent in chambers, Unpaired ([6]; GVG 150 mg/kg ip / Food): 5.6 ± 0.5 min
- Time spent in chambers, Paired ([6]; GVG 300 mg/kg ip / Food): 9.0 ± 0.5 min
- Time spent in chambers, Unpaired ([6]; GVG 300 mg/kg ip / Food): 6.0 ± 0.5 min
- CPP response to food ([6]; GVG 150 and 300 mg/kg): did not alter the CPP response to food
- decrease in brain stimulation reward thresholds produced by 2.5 and 5 mg/kg i.p. cocaine ([7]; GVG 400 mg/kg): significantly antagonized
- brain stimulation reward thresholds ([7]; GVG alone): dose-dependent increase
